Source: patent publication US8524713B2, “Substituted spirocyclic piperidine derivatives as histamine-3 (H3) receptor ligands” (Cephalon, Inc, priority 2008, dated 2013)

How the values were obtained:
human H3 receptor = target: T1, human H3 receptor (Homo sapiens, UniProt Q9Y5N1); test: Human H3 radioligand binding ([3H]-N-alpha-methylhistamine, SPA); details: membranes of CHO cells expressing human H3 receptor; [3H]-N-alpha-methylhistamine about 1 nM
T1 construct: expressed in transfected cells; membrane preparation
T1 sequence (Q9Y5N1 whole entry): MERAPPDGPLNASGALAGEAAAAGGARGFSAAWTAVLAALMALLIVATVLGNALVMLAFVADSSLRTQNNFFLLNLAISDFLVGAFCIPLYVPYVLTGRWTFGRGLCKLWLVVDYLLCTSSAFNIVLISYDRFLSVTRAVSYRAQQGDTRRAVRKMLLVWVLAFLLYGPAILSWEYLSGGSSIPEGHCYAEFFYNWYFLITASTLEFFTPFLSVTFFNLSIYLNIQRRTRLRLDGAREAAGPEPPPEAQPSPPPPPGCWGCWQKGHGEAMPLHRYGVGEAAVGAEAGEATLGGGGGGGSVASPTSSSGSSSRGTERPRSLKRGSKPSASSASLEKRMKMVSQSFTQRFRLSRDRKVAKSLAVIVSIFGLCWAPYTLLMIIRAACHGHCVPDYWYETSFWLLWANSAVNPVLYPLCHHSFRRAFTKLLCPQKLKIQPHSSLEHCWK
Method: (§1) Methods: CHO cells stably expressing the human H3 receptor (GenBank: NM_007232) were harvested and cell pellets were frozen (−80° C.). Cell pellets were resuspended in 5 mM Tris-HCl, pH 7.5 with […] and a cocktail of protease inhibitors (Complete Protease Inhibitior Tablets, Roche Diagnostics). Cells were disrupted using a polytron cell homogenizer and the suspension was centrifuged at 1000×g for 10 minutes at 4° C. The pellet was discarded and the supernatant centrifuged at 40,000×g for 30 min at 4° C. This membrane pellet was washed in membrane buffer containing 50 mM Tris-HCl, pH 7.5 with 0.6 mM EDTA, 5 mM MgCl2 and protease inhibitors, recentrifuged as above and the final pellet resuspended in membrane buffer plus 250 mM sucrose and frozen at −80° C.
(§2) Radioligand Binding. Membranes were resuspended in 50 mM Tris HCl (pH 7.4), 5 mM MgCl2, 0.1% BSA. The membrane suspensions (10 μg protein per well) were incubated in a 96 well microtiter plate with [^3H]-N-alpha-methylhistamine (approximately 1 nM final concentration), test compounds at various concentrations (0.01 nM-30 μM) and scintillation proximity beads (Perkin Elmer, FlashBlueGPCR Scintillating Beads) in a final volume of 80 μl for 4 hours at room temperature, protected from light. Non-specific binding was determined in the presence of 10 μM clobenpropit. Radioligand bound to receptor, and therefore in proximity to the scintillation beads, was measured using a MicroBeta scintillation counter.

[1] = target: T2, rat histamine H3 receptor (Rattus norvegicus, UniProt Q9QYN8); test: Rat H3 radioligand binding ([3H]-N-alpha-methylhistamine, SPA); details: membranes of CHO-A3 cells expressing rat H3 receptor; [3H]-N-alpha-methylhistamine about 1 nM
T2 construct: encoding the entire 445-amino-acid rat histamine H3 receptor; expressed in transfected cells; membrane preparation
T2 sequence (Q9QYN8 whole entry): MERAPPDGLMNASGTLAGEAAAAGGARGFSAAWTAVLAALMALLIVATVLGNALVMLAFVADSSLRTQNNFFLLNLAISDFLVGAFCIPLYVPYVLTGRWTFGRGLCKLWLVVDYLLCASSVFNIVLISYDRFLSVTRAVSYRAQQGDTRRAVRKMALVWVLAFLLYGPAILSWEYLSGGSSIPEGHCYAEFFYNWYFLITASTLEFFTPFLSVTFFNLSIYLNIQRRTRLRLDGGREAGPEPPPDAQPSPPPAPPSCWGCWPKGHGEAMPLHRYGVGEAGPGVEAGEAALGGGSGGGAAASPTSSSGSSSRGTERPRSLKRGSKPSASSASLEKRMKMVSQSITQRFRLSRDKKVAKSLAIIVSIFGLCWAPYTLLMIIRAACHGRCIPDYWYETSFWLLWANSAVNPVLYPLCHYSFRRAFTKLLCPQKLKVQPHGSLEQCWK
Description: as §1, with “Cell line development and membrane preparation. The rat” for “Methods: CHO cells stably expressing the human”, “cDNA was PCR amplified from reverse-transcribed RNA pooled from rat thalamus, hypothalamus, striatum and prefrontal cortex with a sequence corresponding to by #338-1672 of Genbank file #NM_053506, encoding the entire 445-amino-acid rat histamine H3 receptor. This was engineered into the pIRES-neo3 mammalian expression vector, which was stably transfected into the CHO-A3 cell line (Euroscreen, Belgium), followed by clonal selection by limiting dilution. Cells” for “(GenBank: NM_007232)”
as §2

| Ki (human H3 receptor) | Ki [1] | melting point | SMILES |
| --- | --- | --- | --- |
| < 200 nM | < 200 nM | 273 to 275 °C | O=c1ccc(-c2ccc3c(c2)COC2(CCN(C4CCC4)CC2)O3)n[nH]1 [Example 28] |
| < 200 nM | < 200 nM | 189 to 191 °C | O=C1NN=C(c2ccc3c(c2)CC2(CCN(C4CCC4)CC2)O3)C2CC12 (stereo not drawn) [Example 2, l′-cyclobutyl-5-(3,4-diaza-bicyclo[4.1.0]hepten-2-one-5-yl)-spiro[benzofuran-2(3H),4′-piperidine]] |
| < 200 nM | < 200 nM | 216 to 219 °C | O=c1cc(-c2ccc3c(c2)CCC2(CCN(C4CCC4)CC2)O3)cn[nH]1 [Example 19] |
| < 200 nM | < 200 nM | 242 to 243.5 °C | O=C1CCC(c2ccc3c(c2)CCC2(CCN(C4CCC4)CC2)O3)=NN1 [Example 5] |
| < 200 nM | < 200 nM | 210 to 213 °C | CC(C)N1CCC2(CCc3cc(C4=NNC(=O)C(C)(C)C4)ccc3O2)CC1 [Example 14] |
| < 200 nM | < 200 nM | 273 to 275 °C | O=c1ccc(-c2ccc3c(c2)CCC2(CCN(C4CCC4)CC2)O3)n[nH]1 [Example 21] |
| < 200 nM | < 200 nM | 233 to 235 °C | O=c1ccc(Oc2ccc3c(c2)CCC2(CCN(C4CCC4)CC2)O3)n[nH]1 [Example 18] |

The remaining lines, values behind:

| SMILES | Ki (human H3 receptor) | Ki [1] | melting point |
| --- | --- | --- | --- |
| CC1CC(=O)NN=C1c1ccc2c(c1)CCC1(CCN(C3CCC3)CC1)O2 (stereo not drawn) [Example 12, 1′-Cyclobutyl-6-(5-methyl-4,5-dihydro-2H-pyridazin-3-one-6-yl)-spiro[3,4-dihydrobenzopyran-2,4′-piperidine]] | < 200 nM | < 200 nM | 207 to 209 °C |
| Cc1cc(=O)[nH]nc1-c1ccc2c(c1)CC1(CCN(C3CCC3)CC1)O2 [Example 4, 6-(Cyclobutyl-spiro[benzofuran-2(3H),4′-piperidine]-5-yl)-5-methyl-2H-pyridazin-3-one] | < 200 nM | < 200 nM | 243 to 245 °C |
| O=c1[nH]nc(-c2ccc3c(c2)COC2(CCN(C4CCC4)CC2)O3)c2ccccc12 [Example 32] | < 200 nM | < 200 nM | 258 to 259 °C |
| O=c1ccc(-c2ccc3c(c2)CC2(CCN(C4CCC4)CC2)O3)n[nH]1 [Example 16, 1′-Cyclobutyl-5-(6-oxo-1,6-dihydropyridazin-3-yl) spiro[benzofuran-2(3H)-4′-piperidine]] | < 200 nM | < 200 nM | 227 to 228 °C |
| Cc1cc2c(cc1-c1ccc(=O)[nH]n1)COC1(CCN(C3CCC3)CC1)O2 [Example 29] | 200 to 1000 nM | 200 to 1000 nM | 230 to 232 °C |
| CC1CC(=O)NN=C1c1ccc2c(c1)CC1(CCN(C3CCC3)CC1)O2 (stereo not drawn) [Example 3, 6-(1-Cyclobutyl-spiro[benzofuran-2(3H),4′-piperidine]-5-yl)-5-methyl-4,5-dihydro-2H-pyridazin-3-one] | < 200 nM | 200 to 1000 nM | 213 to 215 °C |
| O=c1cc(-c2ccccc2)c(-c2ccc3c(c2)COC2(CCN(C4CCC4)CC2)O3)n[nH]1 [Example 33] | < 200 nM | < 200 nM | 260 to 262 °C |
